Experimental data as given in ChEMBL document CHEMBL5442741, “ASAP - In vitro kinase profile” (2024).
Where “and” joins values, the source holds several entries; their conditions need not be identical. Equal entries are not always repeated.

Columns and labels:
[1] = molecular target: Mitogen-activated protein kinase kinase kinase 9 (Homo sapiens) (UniProt P80192); experiment: Enzymatic radiometric [Km ATP] KinaseProfiler LeadHunter assay, kinase: MLK1, catalogue number: 14-690KP The assay has been performed by Eurofins Discovery.; conditions: ATP concentration 45.0 uM, Test compound concentration 10.0 uM
Mitogen-activated protein kinase kinase kinase 9 (Homo sapiens), sequence (P80192 whole entry, looked up): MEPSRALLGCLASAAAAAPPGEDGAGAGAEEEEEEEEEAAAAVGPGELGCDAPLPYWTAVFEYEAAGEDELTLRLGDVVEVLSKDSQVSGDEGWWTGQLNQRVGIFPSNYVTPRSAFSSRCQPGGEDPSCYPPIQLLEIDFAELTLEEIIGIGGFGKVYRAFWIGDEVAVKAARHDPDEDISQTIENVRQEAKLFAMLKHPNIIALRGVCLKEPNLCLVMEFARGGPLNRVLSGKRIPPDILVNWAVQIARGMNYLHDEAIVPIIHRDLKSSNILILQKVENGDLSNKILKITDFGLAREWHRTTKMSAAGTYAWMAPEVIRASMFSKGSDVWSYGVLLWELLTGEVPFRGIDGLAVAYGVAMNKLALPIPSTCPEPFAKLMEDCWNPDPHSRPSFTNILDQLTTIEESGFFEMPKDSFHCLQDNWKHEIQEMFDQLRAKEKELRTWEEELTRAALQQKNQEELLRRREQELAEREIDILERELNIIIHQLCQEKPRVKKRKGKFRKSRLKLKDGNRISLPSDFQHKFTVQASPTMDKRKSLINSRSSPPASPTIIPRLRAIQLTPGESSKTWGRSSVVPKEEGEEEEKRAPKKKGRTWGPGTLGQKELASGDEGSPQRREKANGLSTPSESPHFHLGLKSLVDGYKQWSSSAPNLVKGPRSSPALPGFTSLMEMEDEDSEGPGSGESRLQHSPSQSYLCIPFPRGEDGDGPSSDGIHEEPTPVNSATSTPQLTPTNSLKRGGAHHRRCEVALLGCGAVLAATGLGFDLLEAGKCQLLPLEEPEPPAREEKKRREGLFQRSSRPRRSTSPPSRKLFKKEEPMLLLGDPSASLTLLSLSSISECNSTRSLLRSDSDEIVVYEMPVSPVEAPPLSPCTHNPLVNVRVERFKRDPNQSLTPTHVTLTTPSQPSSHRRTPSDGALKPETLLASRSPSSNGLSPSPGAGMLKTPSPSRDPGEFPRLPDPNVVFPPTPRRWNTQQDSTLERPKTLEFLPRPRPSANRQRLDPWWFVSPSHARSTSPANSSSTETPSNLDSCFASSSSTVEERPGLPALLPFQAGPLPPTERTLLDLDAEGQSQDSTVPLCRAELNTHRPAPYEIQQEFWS

[2] = molecular target: RAF proto-oncogene serine/threonine-protein kinase (Homo sapiens) (UniProt P04049); experiment: Enzymatic radiometric [Km ATP] KinaseProfiler LeadHunter assay, kinase: c-RAF, catalogue number: 14-352KP The assay has been performed by Eurofins Discovery.; conditions: ATP concentration 120.0 uM, Test compound concentration 10.0 uM
RAF proto-oncogene serine/threonine-protein kinase (Homo sapiens), sequence (P04049 whole entry): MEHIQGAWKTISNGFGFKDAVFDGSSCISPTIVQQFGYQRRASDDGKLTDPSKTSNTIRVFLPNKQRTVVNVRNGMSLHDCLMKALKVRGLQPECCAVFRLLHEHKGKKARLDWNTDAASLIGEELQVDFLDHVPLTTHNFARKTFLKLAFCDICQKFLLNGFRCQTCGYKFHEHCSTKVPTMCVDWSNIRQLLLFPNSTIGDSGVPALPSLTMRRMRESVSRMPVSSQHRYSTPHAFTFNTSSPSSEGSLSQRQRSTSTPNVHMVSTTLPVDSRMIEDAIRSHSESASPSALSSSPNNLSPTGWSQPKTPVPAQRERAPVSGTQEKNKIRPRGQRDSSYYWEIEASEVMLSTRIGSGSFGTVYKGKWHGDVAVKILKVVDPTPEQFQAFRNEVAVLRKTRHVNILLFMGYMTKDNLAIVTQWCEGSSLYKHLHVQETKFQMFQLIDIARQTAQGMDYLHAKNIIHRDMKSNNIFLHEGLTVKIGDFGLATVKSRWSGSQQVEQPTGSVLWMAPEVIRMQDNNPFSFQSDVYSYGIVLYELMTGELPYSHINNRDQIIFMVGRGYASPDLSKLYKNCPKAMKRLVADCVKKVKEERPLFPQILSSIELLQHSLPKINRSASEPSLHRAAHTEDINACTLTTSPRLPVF

[3] = molecular target: cAMP-dependent protein kinase catalytic subunit alpha (Homo sapiens) (UniProt P17612); experiment: Enzymatic radiometric [Km ATP] KinaseProfiler LeadHunter assay, kinase: PKA, catalogue number: 14-440KP The assay has been performed by Eurofins Discovery.; conditions: ATP concentration 10.0 uM, Test compound concentration 10.0 uM
[4] = molecular target: Serine/threonine-protein kinase PAK 2 (Homo sapiens) (UniProt Q13177); experiment: Enzymatic radiometric [Km ATP] KinaseProfiler LeadHunter assay, kinase: PAK2, catalogue number: 14-481KP The assay has been performed by Eurofins Discovery.; conditions: ATP concentration 90.0 uM, Test compound concentration 10.0 uM
[5] = molecular target: PI3K p110 beta/p85 alpha (Homo sapiens) (UniProt P27986+P42338); experiment: Enzymatic radiometric [Km ATP] KinaseProfiler LeadHunter assay, kinase: PI3 Kinase (p110-beta/p85-alpha), catalogue number: 14-603KP The assay has been performed by Eurofins Discovery.; format: protein-complex assay; conditions: ATP concentration 200.0 uM, Test compound concentration 10.0 uM
PI3K p110 beta/p85 alpha (Homo sapiens), sequence (P27986 2-724 limits assumed): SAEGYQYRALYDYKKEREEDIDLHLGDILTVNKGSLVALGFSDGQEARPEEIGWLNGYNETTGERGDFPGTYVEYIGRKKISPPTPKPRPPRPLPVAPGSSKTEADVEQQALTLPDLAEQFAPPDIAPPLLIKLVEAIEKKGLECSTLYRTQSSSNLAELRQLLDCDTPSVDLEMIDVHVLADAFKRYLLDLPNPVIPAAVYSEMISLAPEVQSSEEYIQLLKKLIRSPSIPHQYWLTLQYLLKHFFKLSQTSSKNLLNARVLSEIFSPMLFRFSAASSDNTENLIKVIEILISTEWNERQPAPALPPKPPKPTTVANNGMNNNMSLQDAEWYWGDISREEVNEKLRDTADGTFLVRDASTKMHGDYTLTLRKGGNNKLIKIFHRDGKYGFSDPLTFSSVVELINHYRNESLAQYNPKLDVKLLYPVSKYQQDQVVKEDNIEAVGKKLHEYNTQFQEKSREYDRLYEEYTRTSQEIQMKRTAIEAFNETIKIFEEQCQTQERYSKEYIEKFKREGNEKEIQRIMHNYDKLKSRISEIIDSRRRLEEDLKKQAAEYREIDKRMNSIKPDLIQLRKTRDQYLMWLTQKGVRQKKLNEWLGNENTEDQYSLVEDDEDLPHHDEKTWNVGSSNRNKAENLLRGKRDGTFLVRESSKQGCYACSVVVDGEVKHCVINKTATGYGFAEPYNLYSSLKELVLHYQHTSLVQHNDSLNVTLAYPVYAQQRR
PI3K p110 beta/p85 alpha (Homo sapiens), sequence (P42338 whole entry partner): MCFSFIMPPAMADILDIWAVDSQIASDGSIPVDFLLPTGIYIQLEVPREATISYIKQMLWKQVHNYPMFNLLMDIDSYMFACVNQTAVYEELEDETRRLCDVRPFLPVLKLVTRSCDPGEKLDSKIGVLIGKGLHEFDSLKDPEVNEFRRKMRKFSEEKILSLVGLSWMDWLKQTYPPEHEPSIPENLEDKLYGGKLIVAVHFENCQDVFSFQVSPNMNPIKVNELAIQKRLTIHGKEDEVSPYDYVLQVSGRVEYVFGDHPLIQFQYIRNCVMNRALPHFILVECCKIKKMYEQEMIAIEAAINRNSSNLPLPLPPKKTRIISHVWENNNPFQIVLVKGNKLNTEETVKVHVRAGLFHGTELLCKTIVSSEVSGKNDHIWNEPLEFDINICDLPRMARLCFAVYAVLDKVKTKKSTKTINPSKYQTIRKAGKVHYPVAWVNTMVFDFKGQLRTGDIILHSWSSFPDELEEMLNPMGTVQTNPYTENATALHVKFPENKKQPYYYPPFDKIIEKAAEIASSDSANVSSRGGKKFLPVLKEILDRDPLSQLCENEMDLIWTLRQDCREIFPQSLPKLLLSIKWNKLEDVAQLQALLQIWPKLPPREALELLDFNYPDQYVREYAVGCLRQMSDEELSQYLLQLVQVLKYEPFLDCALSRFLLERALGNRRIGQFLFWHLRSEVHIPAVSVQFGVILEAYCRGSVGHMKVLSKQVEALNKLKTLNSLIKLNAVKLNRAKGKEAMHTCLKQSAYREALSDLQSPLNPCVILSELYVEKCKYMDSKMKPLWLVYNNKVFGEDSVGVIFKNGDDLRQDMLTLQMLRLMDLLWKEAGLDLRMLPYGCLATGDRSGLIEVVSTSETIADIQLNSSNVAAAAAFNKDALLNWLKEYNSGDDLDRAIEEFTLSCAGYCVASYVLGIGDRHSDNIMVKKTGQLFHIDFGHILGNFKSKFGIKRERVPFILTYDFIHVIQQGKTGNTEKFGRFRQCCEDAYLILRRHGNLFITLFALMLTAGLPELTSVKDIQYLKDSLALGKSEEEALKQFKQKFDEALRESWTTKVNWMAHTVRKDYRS

[6] = molecular target: CDK9/cyclin T1 (Homo sapiens) (UniProt O60563+P50750); experiment: Enzymatic radiometric [Km ATP] KinaseProfiler LeadHunter assay, kinase: CDK9/cyclin T1, catalogue number: 14-685KP The assay has been performed by Eurofins Discovery.; format: protein-complex assay; conditions: ATP concentration 45.0 uM, Test compound concentration 10.0 uM
[7] = molecular target: Tyrosine-protein kinase JAK2 (Homo sapiens) (UniProt O60674); experiment: Enzymatic radiometric [Km ATP] KinaseProfiler LeadHunter assay, kinase: JAK2, catalogue number: 14-640KP The assay has been performed by Eurofins Discovery.; conditions: ATP concentration 45.0 uM, Test compound concentration 10.0 uM
[8] = molecular target: T1, Aurora kinase A (Homo sapiens) (UniProt O14965); experiment: Enzymatic radiometric [Km ATP] KinaseProfiler LeadHunter assay, kinase: Aurora-A, catalogue number: 14-511KP The assay has been performed by Eurofins Discovery.; conditions: ATP concentration 15.0 uM, Test compound concentration 10.0 uM
T1 sequence (whole entry): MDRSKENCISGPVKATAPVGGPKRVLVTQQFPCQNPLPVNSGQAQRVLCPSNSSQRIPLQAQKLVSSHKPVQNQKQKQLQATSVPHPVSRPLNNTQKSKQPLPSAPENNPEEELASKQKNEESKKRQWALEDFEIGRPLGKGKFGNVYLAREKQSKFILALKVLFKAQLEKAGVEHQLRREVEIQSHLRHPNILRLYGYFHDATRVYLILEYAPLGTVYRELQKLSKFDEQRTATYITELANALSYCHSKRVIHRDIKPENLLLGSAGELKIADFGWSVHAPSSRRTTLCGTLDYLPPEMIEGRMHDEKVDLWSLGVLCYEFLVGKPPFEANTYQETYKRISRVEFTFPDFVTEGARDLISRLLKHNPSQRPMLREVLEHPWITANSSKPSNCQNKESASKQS

[9] = molecular target: SRSF protein kinase 1 (Homo sapiens) (UniProt Q96SB4); experiment: Enzymatic radiometric [Km ATP] KinaseProfiler LeadHunter assay, kinase: SRPK1, catalogue number: 14-564KP The assay has been performed by Eurofins Discovery.; conditions: ATP concentration 10.0 uM, Test compound concentration 10.0 uM
SRSF protein kinase 1 (Homo sapiens), sequence (Q96SB4 whole entry): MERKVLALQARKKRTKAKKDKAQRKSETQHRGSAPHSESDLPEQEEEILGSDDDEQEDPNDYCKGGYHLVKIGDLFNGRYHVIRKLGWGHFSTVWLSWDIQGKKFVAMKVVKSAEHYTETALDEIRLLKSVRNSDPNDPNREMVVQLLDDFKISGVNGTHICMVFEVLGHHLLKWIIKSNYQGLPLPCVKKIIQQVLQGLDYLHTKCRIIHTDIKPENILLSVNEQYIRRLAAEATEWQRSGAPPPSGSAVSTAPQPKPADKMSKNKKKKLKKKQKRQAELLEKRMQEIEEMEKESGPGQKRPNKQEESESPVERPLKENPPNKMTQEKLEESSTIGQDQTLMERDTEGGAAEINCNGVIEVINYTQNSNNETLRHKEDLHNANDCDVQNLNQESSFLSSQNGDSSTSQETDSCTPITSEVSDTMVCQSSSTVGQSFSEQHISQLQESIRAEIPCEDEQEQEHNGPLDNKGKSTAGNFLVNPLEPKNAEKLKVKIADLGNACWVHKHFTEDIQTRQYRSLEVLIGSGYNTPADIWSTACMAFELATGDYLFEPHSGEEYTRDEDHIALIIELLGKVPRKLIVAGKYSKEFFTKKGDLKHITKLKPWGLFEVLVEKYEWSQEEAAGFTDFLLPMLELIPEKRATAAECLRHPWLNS

[10] = molecular target: Protein kinase C alpha type (Homo sapiens) (UniProt P17252); experiment: Enzymatic radiometric [Km ATP] KinaseProfiler LeadHunter assay, kinase: PKC-alpha, catalogue number: 14-484KP The assay has been performed by Eurofins Discovery.; conditions: ATP concentration 45.0 uM, Test compound concentration 10.0 uM
[11] = molecular target: CDK6/cyclin D3 (Homo sapiens) (UniProt P30281+Q00534); experiment: Enzymatic radiometric [Km ATP] KinaseProfiler LeadHunter assay, kinase: CDK6/cyclinD3, catalogue number: 14-519KP The assay has been performed by Eurofins Discovery.; format: protein-complex assay; conditions: ATP concentration 200.0 uM, Test compound concentration 10.0 uM
[12] = molecular target: T2, MAP kinase-activated protein kinase 5 (Homo sapiens) (UniProt Q8IW41); experiment: Enzymatic radiometric [Km ATP] KinaseProfiler LeadHunter assay, kinase: PRAK, catalogue number: 14-334KP The assay has been performed by Eurofins Discovery.; conditions: ATP concentration 15.0 uM, Test compound concentration 10.0 uM
T2 sequence (whole entry): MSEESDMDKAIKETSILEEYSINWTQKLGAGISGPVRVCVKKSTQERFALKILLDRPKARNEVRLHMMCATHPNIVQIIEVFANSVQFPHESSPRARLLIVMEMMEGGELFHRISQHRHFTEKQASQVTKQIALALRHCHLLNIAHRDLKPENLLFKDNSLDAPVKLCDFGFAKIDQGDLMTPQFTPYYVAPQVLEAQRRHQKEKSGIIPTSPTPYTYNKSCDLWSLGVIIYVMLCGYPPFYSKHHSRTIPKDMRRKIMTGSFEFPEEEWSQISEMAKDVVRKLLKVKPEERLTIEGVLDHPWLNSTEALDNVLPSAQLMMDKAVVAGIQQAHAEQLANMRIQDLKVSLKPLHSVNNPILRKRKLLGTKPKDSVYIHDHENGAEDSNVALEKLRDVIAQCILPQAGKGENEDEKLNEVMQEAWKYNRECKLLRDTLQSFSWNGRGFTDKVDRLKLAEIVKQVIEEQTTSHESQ

[13] = molecular target: RAC-alpha serine/threonine-protein kinase (Homo sapiens) (UniProt P31749); experiment: Enzymatic radiometric [Km ATP] KinaseProfiler LeadHunter assay, kinase: PKB-alpha, catalogue number: 14-276KP The assay has been performed by Eurofins Discovery.; conditions: ATP concentration 155.0 uM, Test compound concentration 10.0 uM
[14] = molecular target: Calcium/calmodulin-dependent protein kinase type 1 (Homo sapiens) (UniProt Q14012); experiment: Enzymatic radiometric [Km ATP] KinaseProfiler LeadHunter assay, kinase: CaMKI, catalogue number: 14-663KP The assay has been performed by Eurofins Discovery.; conditions: ATP concentration 200.0 uM, Test compound concentration 10.0 uM

Compound	Activity [1]	Activity [2]	Activity [3]	Activity [4]	Activity [5]	Activity [6]	Activity [7]	Activity [8]	Activity [9]	Activity [10]	Activity [11]	Activity [12]	Activity [13]	Activity [14]
CC(C)[C@@H](Nc1ncnc2[nH]ccc12)c1ccc2c(c1)S(=O)(=O)CCC2	81%	97%	98%	110%	101%	114%	110%	57%	105%	104%	99%	107%	96%	94%
C[C@H](C(=O)O)[C@@H](NC(=O)c1ncnc2[nH]ccc12)c1ccc(Br)cc1	86%	108%	87%	95%	97%	103%	99%	72%	97%	108%	97%	88%	95%	101%
CC(C)[C@H](Nc1ncnc2[nH]c(-c3cnn(C)c3C#N)cc12)c1ccc2c(n1)OCCO2	73%	97%	82%	99%	86%	79%	115%	53%	111%	–	102%	84%	90%	104%
CC(C)[C@@H](Nc1ncnc2[nH]c(-c3cnn(C)c3C#N)cc12)c1ccc2c(n1)OCCO2	81% and 82%	81% and 90%	92% and 93%	95% and 99%	92% and 84%	–	101% and 123%	44% and 58%	92% and 104%	90% and 99%	–	95% and 89%	95% and 94%	104% and 95%
COc1ccc([C@H](Cc2nnn[nH]2)NC(=O)c2ncnc3[nH]ccc23)cc1	87%	103%	88%	107%	97%	109%	116%	84%	103%	93%	102%	109%	97%	–
Cc1nn(C)cc1-c1cc2c(N[C@H](c3ccc4c(c3)S(=O)(=O)CCC4)C(C)C)ncnc2[nH]1	79%	93%	95%	100%	105%	57%	111%	55%	104%	93%	106%	82%	91%	101%
CNCc1cc(-c2cc3c(N[C@@H](c4ccc5c(c4)S(=O)(=O)CCC5)C(C)C)ncnc3[nH]2)co1	86%	100%	96%	94%	92%	40%	114%	73%	101%	99%	92%	122%	96%	87%
Cn1ncc(-c2cc3c(N[C@@H](c4ccc5c(n4)OCCO5)C(C)(C)C)ncnc3[nH]2)c1C#N	94%	87%	95%	111%	91%	130%	140%	95%	117%	87%	–	86%	103%	87%
COc1ccc([C@@H](Cc2nnn[nH]2)NC(=O)c2ncnc3[nH]ccc23)cc1	85%	90%	105%	102%	102%	117%	102%	71%	102%	95%	100%	95%	94%	100%
CC(C)[C@@H](Nc1ncnc2[nH]c(C(=O)N[C@@H]3CCN(C)C3)cc12)c1ccc2c(c1)S(=O)(=O)CCC2	96%	105%	89%	99%	99%	108%	106%	97%	108%	101%	99%	111%	88%	100%
CC(C)[C@H](Nc1ncnc2[nH]ccc12)c1ccc2c(c1)S(=O)(=O)CCC2	84%	107%	89%	102%	100%	112%	99%	51%	100%	98%	105%	102%	95%	92%
CNC(=O)Cn1cc(-c2cc3c(N[C@@H](c4ccc5c(c4)S(=O)(=O)CCC5)C(C)C)ncnc3[nH]2)cn1	89%	102%	99%	103%	100%	61%	94%	77%	94%	95%	107%	89%	95%	101%
